Values of other authors in patent publication US12121514B2, “Nonselective metabotropic glutamate receptor activators for treatment of attention deficit disorder and 22Q syndrome” (THE CHILDREN'S HOSPITAL OF PHILADELPHIA, priority 2015, dated 2024).

Key:
[1] = tested on: group I and group II/III mGluRs; details: in vitro studies; cited from earlier work
[2] = tested on: adenylate cyclase activity through group I, II and III mGluRs; details: cited from earlier work
pediatric ADHD subjects = details: cited from earlier work

| SMILES | stimulation of mGluRs [1] | adenylate cyclase activity through group I mGluRs [2] | adenylate cyclase activity through group II and III mGluRs [2] | ADHD symptoms compared to a placebo control (pediatric ADHD subjects) |
| --- | --- | --- | --- | --- |
| O=C1CC[C@H](C(=O)N2CCCCC2)N1 [Fasoracetam, fasoracetam] | can stimulate both group I and group II/III mGluRs | may stimulate adenylate cyclase activity | may also inhibit adenylate cyclase activity | – |
| NC(=O)CN1CCCC1=O [piracetam] | – | – | – | increase ADHD symptoms |
